Source: US11208419B2, “Phenylbenzofuran compound, preparation method therefor, composition containing the same and medical application thereof” (Guangxi Botanical Garden of Medicinal Plants, priority 2018, dated 2021)
Values after ≈ are worked out from the molar mass of the structure shown.

What was measured:
Type in all cases: cell-based
[1] = test system: nasopharyngeal carcinoma cell CNE-1; test: MTT anti-tumor experiment in vitro, inhibition of nasopharyngeal carcinoma cell CNE-1
Procedure: (§1) Experiment 1, anti-tumor experiment of MTT in vitro
Inhibition experiment of nasopharyngeal carcinoma cell CNE-1
(§2) F1, 0.25% trypsin was added to nasopharyngeal carcinoma cell CNE-1 in the logarithmic growth phase for cell dissociation until adherent cells were failed off. Cell suspension containing 2×10^4 nasopharyngeal carcinoma cells CNE-1 per mL was prepared.
(§3) F2, a 96-well plate was taken, one row of the 96-well plate was set as a blank group, 9 rows were set as the experimental group 1, one row was set as the experimental group 2, and one row was set as the negative control group, wherein 6 wells in the middle of each row were used for the experiment and was added of 100 μL of RPMI-1640 medium, wherein the medium of negative control group contained 1% DMSO.
(§4) F3, 100 μL of cell suspension was added to each well of the blank group, the experimental group 1, the experimental group 2, and the negative control group. Then, the 96-well plate was placed in an incubator at 37 degree Celsius, 5% CO2, and 95% humidity, and cultured in the incubator for 12 hours. 100 μL phenylbenzofuran compound (phenylbenzofuran compound of embodiment 3) with a concentration was added to wells of each row of 9 rows in the experimental group 1, ie, 10 μg/mL, 20 μg/mL, 30 μg/mL, 40 μg/mL, 50 μg/mL, 60 μg/mL, 70 μg/mL, 80 μg/mL, and 90 μg/mL, wherein the concentration of phenylbenzofuran compound of wells in the same row was equal. As a parallel experiment, cisplatin (80 μg/mL, 100 μL) was added to wells of a row in the experimental group 2. Then, the 96-well plate was placed in an incubator at 37 degree Celsius, 5% CO2, and 95% humidity, and cultured in the incubator for 48 hours. MTT (5 mg/mL, 20 μL) was added to each well. Then, the 96-well plate was placed in an incubator at 37 degree Celsius, 5% CO2, and 95% humidity, and cultured in the incubator for 4 hours. The supernatant as removed by a pipette tip, 150 μL of DMSO was added, and the mixture was shaken for 10 minutes in a micro shaker to cause complete dissolution of crystal. The OD value of each well was measured at a wavelength of 570 nm by a microplate reader, and the IC50 value was calculated. That is, the concentration when the inhibition rate of the cells reached 50% was the IC50 value.
Proliferation rate of CNE-1 cell=(average of experimental group-average of blank control group)/(average of negative control group-average of blank control group)×100%.
Inhibition rate of CNE-1 cell=[…] of CNE-1 cell.

[2] = test system: nasopharyngeal carcinoma cell CNE-2; test: MTT anti-tumor experiment in vitro, inhibition of nasopharyngeal carcinoma cell CNE-2
Procedure: as §1, §2, §3, §4
Inhibition experiment of nasopharyngeal carcinoma cell CNE-2
The experimental procedure of the inhibition experiment of nasopharyngeal carcinoma cell CNE-2 was the same as that of the inhibition experiment of nasopharyngeal carcinoma cell CNE-1, except that the nasopharyngeal carcinoma cell CNE-1 was replaced with the nasopharyngeal carcinoma cell CNE-2.

[3] = test system: nasopharyngeal carcinoma cell CNE-2; test: as above; conditions: Homo sapiens, 100 μg/mL, 48 hours, read-out: Inhibition rate of nasopharyngeal carcinoma cells (%) CNE-2
[4] = test system: nasopharyngeal carcinoma cell CNE-1; test: MTT anti-tumor experiment in vitro, inhibition of nasopharyngeal carcinoma cell CNE-1; conditions: 100 μg/mL, 48 hours, read-out: Inhibition rate of nasopharyngeal carcinoma cells (%) CNE-1

For N.N.[Cl][Pt][Cl] [Cisplatin, cisplatin, reference compound], the “Inhibition rate of nasopharyngeal carcinoma cells (%) CNE-1” value ([1]; 80 μg/mL, 48 hours, MTT) was 94.21 ± 0.18% and the “Inhibition rate of nasopharyngeal carcinoma cells (%) CNE-2” value ([2]; 80 μg/mL, 48 hours, MTT) was 97.37 ± 0.49%.

Oc1ccc(-c2cc3cc4c(cc3o2)OCO4)c(O)c1 [Phenylbenzofuran compound] was tested, and the inhibition at 100 µg/mL [3] was 98.64 ± 0.22%, the inhibition at 10 µg/mL ([1]; 10 μg/mL, 48 hours, MTT, read-out: Inhibition rate of nasopharyngeal carcinoma cells (%) CNE-1) was 25 ± 0.07% and the inhibition at 20 µg/mL ([1]; 20 μg/mL, 48 hours, MTT, read-out: Inhibition rate of nasopharyngeal carcinoma cells (%) CNE-1) was 37.57 ± 0.03%. It also gave an inhibition at 30 µg/mL ([1]; 30 μg/mL, 48 hours, MTT, read-out: Inhibition rate of nasopharyngeal carcinoma cells (%) CNE-1) of 45.52 ± 0.07%, an inhibition at 40 µg/mL ([1]; 40 μg/mL, 48 hours, MTT, read-out: Inhibition rate of nasopharyngeal carcinoma cells (%) CNE-1) of 60.37 ± 0.06% and an inhibition at 50 µg/mL ([1]; 50 μg/mL, 48 hours, MTT, read-out: Inhibition rate of nasopharyngeal carcinoma cells (%) CNE-1) of 68.5 ± 0.09%. For the same compound, the inhibition at 60 µg/mL ([1]; 60 μg/mL, 48 hours, MTT, read-out: Inhibition rate of nasopharyngeal carcinoma cells (%) CNE-1) was 75.01 ± 0.13%, the inhibition at 70 µg/mL ([1]; 70 μg/mL, 48 hours, MTT, read-out: Inhibition rate of nasopharyngeal carcinoma cells (%) CNE-1) was 85.83 ± 0.06% and the inhibition at 80 µg/mL ([1]; 80 μg/mL, 48 hours, MTT, read-out: Inhibition rate of nasopharyngeal carcinoma cells (%) CNE-1) was 97.02 ± 0.11%. It also gave an inhibition at 90 µg/mL ([1]; 90 μg/mL, 48 hours, MTT, read-out: Inhibition rate of nasopharyngeal carcinoma cells (%) CNE-1) of 97.81 ± 0.06%, an IC50 ([1]; CNE-1, 48 hours, read-out: concentration at which the inhibition rate reaches half inhibition growth effect) of 20 µg/mL (≈ 74 µM) and an inhibition at 100 µg/mL [4] of 97.41 ± 0.02%. It also gave an inhibition at 10 µg/mL ([2]; Homo sapiens, CNE-2, 10 μg/mL, 48 hours, MTT, read-out: Inhibition rate of nasopharyngeal carcinoma cells (%) CNE-2) of 28.4 ± 0.36%, an inhibition at 20 µg/mL ([2]; Homo sapiens, CNE-2, 20 μg/mL, 48 hours, MTT, read-out: Inhibition rate of nasopharyngeal carcinoma cells (%) CNE-2) of 43.61 ± 0.29% and an inhibition at 30 µg/mL ([2]; Homo sapiens, CNE-2, 30 μg/mL, 48 hours, MTT, read-out: Inhibition rate of nasopharyngeal carcinoma cells (%) CNE-2) of 48.5 ± 0.6%. For the same compound, the inhibition at 40 µg/mL ([2]; Homo sapiens, CNE-2, 40 μg/mL, 48 hours, MTT, read-out: Inhibition rate of nasopharyngeal carcinoma cells (%) CNE-2) was 75.18 ± 0.09%, the inhibition at 50 µg/mL ([2]; Homo sapiens, CNE-2, 50 μg/mL, 48 hours, MTT, read-out: Inhibition rate of nasopharyngeal carcinoma cells (%) CNE-2) was 84.42 ± 0.44% and the inhibition at 60 µg/mL ([2]; Homo sapiens, CNE-2, 60 μg/mL, 48 hours, MTT, read-out: Inhibition rate of nasopharyngeal carcinoma cells (%) CNE-2) was 95.13 ± 0.22%. It also gave an inhibition at 70 µg/mL ([2]; Homo sapiens, CNE-2, 70 μg/mL, 48 hours, MTT, read-out: Inhibition rate of nasopharyngeal carcinoma cells (%) CNE-2) of 97.27 ± 0.6%, an inhibition at 80 µg/mL ([2]; Homo sapiens, CNE-2, 80 μg/mL, 48 hours, MTT, read-out: Inhibition rate of nasopharyngeal carcinoma cells (%) CNE-2) of 98.78 ± 0.09% and an inhibition at 90 µg/mL ([2]; Homo sapiens, CNE-2, 90 μg/mL, 48 hours, MTT, read-out: Inhibition rate of nasopharyngeal carcinoma cells (%) CNE-2) of 98.82 ± 0.44%. It also gave an IC50 ([2]; Homo sapiens, CNE-2, 48 hours, read-out: concentration at which the inhibition rate reaches half inhibition growth effect) of 15 µg/mL (≈ 55.5 µM).
